Values quoted from earlier work in patent US20100120744A1, “ACETAM[…] NMDA RECEPTORS” (AUSPEX PHARMACEUTICALS, INC., priority 2008, published 2010).

Conditions: in vivo

CC(=O)NCCCS(=O)(=O)O [Acamprosate, 3-acetamidopropane-1-sulfonic acid]
metabolism by the body: not metabolized
